pIC50: −log10 of the molar value.
Assays:
[1] = target: T1, Protein deacetylase HDAC6 (Homo sapiens, UniProt Q9UBN7); experiment: Inhibition of human recombinant full length HDAC6 using (Boc-Lys (-acetyl)-AMC substrate after 30 mins
T1 sequence (Q9UBN7 whole entry): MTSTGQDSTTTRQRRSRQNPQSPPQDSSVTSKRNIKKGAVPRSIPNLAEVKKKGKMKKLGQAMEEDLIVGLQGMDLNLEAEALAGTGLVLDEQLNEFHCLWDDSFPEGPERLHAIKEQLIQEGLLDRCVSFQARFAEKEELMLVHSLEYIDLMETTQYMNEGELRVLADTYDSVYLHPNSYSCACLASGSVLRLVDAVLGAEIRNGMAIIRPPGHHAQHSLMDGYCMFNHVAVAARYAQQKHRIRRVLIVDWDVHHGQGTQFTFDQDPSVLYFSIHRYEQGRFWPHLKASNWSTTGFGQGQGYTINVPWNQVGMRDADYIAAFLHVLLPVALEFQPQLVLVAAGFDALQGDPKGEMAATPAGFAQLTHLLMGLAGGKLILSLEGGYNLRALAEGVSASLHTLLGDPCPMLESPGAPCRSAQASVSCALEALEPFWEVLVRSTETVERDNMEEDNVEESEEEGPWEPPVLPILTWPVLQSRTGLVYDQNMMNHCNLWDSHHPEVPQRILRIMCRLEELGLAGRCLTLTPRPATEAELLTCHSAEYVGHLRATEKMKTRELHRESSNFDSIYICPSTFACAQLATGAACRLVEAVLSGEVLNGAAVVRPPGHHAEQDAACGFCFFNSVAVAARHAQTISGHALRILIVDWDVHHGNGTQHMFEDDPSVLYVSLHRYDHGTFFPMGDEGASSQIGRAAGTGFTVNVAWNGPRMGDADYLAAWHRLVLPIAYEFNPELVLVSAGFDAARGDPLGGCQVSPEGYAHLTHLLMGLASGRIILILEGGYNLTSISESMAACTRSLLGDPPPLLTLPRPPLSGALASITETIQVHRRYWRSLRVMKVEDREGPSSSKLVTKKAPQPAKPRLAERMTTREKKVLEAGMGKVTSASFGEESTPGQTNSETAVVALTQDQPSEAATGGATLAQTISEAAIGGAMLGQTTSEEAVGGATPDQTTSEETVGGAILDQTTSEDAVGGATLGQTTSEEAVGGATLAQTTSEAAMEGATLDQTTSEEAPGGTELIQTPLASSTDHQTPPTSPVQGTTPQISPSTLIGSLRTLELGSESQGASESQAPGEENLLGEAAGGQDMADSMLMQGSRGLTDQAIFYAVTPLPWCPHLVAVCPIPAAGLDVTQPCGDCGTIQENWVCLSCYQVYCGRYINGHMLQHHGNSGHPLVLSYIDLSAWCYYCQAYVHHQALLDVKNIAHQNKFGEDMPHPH

[2] = target: Histone deacetylase 3 (Homo sapiens, UniProt O15379); experiment: Inhibition of human recombinant full length HDAC3 using (Ac)-Lys-Tyr-Lys(-acetyl)-AMC substrate after 30 mins
Chain of Histone deacetylase 3 (O15379 whole entry): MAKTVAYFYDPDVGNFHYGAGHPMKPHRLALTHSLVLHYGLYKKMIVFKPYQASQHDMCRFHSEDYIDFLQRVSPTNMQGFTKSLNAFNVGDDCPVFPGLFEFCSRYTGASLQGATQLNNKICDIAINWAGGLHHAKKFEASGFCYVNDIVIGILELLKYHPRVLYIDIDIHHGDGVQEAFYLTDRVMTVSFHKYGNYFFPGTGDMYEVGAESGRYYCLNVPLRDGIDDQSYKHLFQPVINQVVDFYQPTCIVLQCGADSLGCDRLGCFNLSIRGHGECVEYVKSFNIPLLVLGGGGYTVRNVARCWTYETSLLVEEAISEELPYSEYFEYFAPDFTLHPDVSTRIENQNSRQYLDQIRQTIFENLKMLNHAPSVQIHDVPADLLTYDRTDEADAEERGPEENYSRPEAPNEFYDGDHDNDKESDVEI

[3] = target: Histone deacetylase 1 (Homo sapiens, UniProt Q13547); experiment: Inhibition of human recombinant full length HDAC1 using (Ac)-Lys-Tyr-Lys(-acetyl)-AMC substrate after 30 mins
Chain of Histone deacetylase 1 (Q13547 whole entry): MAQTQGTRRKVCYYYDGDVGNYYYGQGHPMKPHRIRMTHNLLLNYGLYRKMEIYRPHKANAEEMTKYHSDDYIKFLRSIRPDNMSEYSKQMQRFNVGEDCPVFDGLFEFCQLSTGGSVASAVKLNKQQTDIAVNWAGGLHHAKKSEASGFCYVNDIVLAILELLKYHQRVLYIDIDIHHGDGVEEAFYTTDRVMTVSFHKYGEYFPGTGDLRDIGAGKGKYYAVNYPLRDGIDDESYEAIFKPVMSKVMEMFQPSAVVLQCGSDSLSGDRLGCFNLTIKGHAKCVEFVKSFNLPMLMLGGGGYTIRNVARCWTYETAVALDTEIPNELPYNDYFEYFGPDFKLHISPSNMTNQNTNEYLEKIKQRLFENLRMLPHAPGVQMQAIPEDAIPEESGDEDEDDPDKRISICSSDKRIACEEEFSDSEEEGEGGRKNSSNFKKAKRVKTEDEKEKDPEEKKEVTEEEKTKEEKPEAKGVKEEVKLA

[4] = Antiproliferative activity against human HCT116 cells after 72 hrs by WST8 assay; assay type: functional, cell-based; settings: HCT-116, 72 h
[5] = Antiproliferative activity against human RPMI8226 cells after 72 hrs by WST8 assay; assay type: functional, cell-based; settings: RPMI-8226, 72 h
[6] = target: T2, Histone deacetylase (Homo sapiens) (UniProt Q13547+O15379+Q9UBN7+Q92769+Q9UQL6+Q8WUI4+Q9BY41+Q96DB2+P56524+Q9UKV0+Q969S8); experiment: Inhibition of HDAC in human RPMI8226 cells assessed as increase in histone H3 acetylation after 24 hrs by Western blot analysis; assay type: cell-based; settings: RPMI-8226
[7] = target: T2, Histone deacetylase (Homo sapiens); experiment: Inhibition of HDAC in human RPMI8226 cells assessed as increase in alpha-tubulin acetylation after 24 hrs by Western blot analysis; assay type: cell-based; settings: RPMI-8226

SMILES	pIC50 [1]	pIC50 [2]	pIC50 [3]	pIC50 [4]	pIC50 [5]	inhibition [6]	inhibition [7]
O=C(CCCCCCC(=O)Nc1cc2c(Nc3ccc(F)c(Cl)c3)ncnc2s1)NO	7.66	7.75	7.87				
O=C(CCCCCCC(=O)Nc1cc2c(Nc3ccc(Cl)cc3F)ncnc2s1)NO	8.25	7.84	7.90	5.77	5.46		
O=C(CCCCCCC(=O)Nc1cc2c(Nc3ccc(F)cc3F)ncnc2s1)NO	8.10	7.77	8.00		5.13		
O=C(CCCCCCC(=O)Nc1cc2c(Nc3ccc(N4CCCC4)c(F)c3)ncnc2s1)NO	8.03	7.85	7.84	5.39	5.33		
O=C(CCCCC(=O)Nc1cc2c(Nc3ccc(F)c(Cl)c3)ncnc2s1)NO	6.25	6.90	6.88				
O=C(CCCCCCC(=O)Nc1cc2c(Nc3ccc(I)cc3F)ncnc2s1)NO	8.18	7.87	8.20				
O=C(CCCCCCC(=O)Nc1cc2c(Nc3ccc(N4CCCCC4)c(F)c3)ncnc2s1)NO	8.47	8.09	8.27	5.84	5.48		
O=C(CCCCCCC(=O)Nc1cc2c(Nc3ccccc3)ncnc2s1)NO	7.92	8.46	8.72	5.74	5.42	Dose-dependent effect	Dose-dependent effect
O=C(CCCCCCC(=O)Nc1cc2c(Nc3ccc(Br)cc3F)ncnc2s1)NO	8.05	7.93	7.87		5.09		
Cc1ccc(Nc2ncnc3sc(NC(=O)CCCCCCC(=O)NO)cc23)cc1C	7.94	8.45	8.94	5.79	5.62	Dose-dependent effect	Dose-dependent effect
Cc1ccc(Nc2ncnc3sc(NC(=O)CCCCCCC(=O)NO)cc23)cc1	8.27	8.53	8.70	5.63	5.42	Dose-dependent effect	Dose-dependent effect
Cc1ccc(Nc2ncnc3sc(NC(=O)CCCCCC(=O)NO)cc23)cc1C	7.77	7.83	7.53				
O=C(CCCCC(=O)Nc1cc2c(Nc3ccc(Cl)c(C(F)(F)F)c3)ncnc2s1)NO		6.22	6.66				
O=C(CCCCCC(=O)Nc1cc2c(Nc3ccc(F)c(Cl)c3)ncnc2s1)NO	7.62	7.42	7.45				
Cc1ccc(Nc2ncnc3sc(NC(=O)CCCCCC(=O)NO)cc23)cc1	7.71	8.03	7.85				
O=C(CCCCCCC(=O)Nc1cc2c(Cl)ncnc2s1)NO	7.82	7.58	7.59	5.53	5.66	Dose-dependent effect	Dose-dependent effect
O=C(CCCCCCC(=O)Nc1cc2c(Nc3cccc(Cl)c3F)ncnc2s1)NO	8.07	7.83	8.11		5.09		
O=C(CCCCCCC(=O)Nc1cc2c(Nc3ccc(N4CCCC4)cc3)ncnc2s1)NO	8.14	7.85	7.86	5.43	5.27		
O=C(CCCCCCC(=O)Nc1cc2c(Nc3ccc(O[C@H]4CCOC4)c(Cl)c3)ncnc2s1)NO	8.72	8.45	8.53	5.65	5.38		
CCN(CC)c1ccc(Nc2ncnc3sc(NC(=O)CCCCCCC(=O)NO)cc23)cc1F	8.46	8.45	8.34	5.59	5.85	Dose-dependent effect	Dose-dependent effect
O=C(CCCCCCC(=O)Nc1cc2c(Nc3cccc(Cl)c3)ncnc2s1)NO	8.07	8.19	8.49		5.35		
CN(C)c1ccc(Nc2ncnc3sc(NC(=O)CCCCCCC(=O)NO)cc23)cc1F	8.57	8.49	8.35	5.39	5.46	Dose-dependent effect	Dose-dependent effect
CCN(CC)c1ccc(Nc2ncnc3sc(NC(=O)CCCCCCC(=O)NO)cc23)cc1	7.36	7.40	7.48	5.35	5.23		
O=C(CCCCCC(=O)Nc1cc2c(Nc3ccc(Cl)c(C(F)(F)F)c3)ncnc2s1)NO	7.52	7.32	7.39				
O=C(CCCCCCC(=O)Nc1cc2c(Nc3ccc(Cl)c(C(F)(F)F)c3)ncnc2s1)NO	7.94	7.63	7.66				
O=C(CCCCCC(=O)Nc1cc2c(Nc3ccccc3)ncnc2s1)NO	7.57	7.68	7.93				
